What all share (assay type): cell-based, human
One experiment deals with colon cancer cells. Description: Colon cancer cell proliferation (Ki67 FACS, H3 thymidine incorporation, cell counting). The settings on record: H3 thymidine incorporation. From the text: A. GSEA analysis identifies proliferation pathways have positive correlation with IL-22. B. Cell proliferation maker Ki67 was detected by FACS. C. H^3 Thymidine Incorporation was used to detect the function of IL-22 in cell proliferation. D. Cell number was counted after stimulated with IL-22. E. Cells isolated from colon cancer tissue (Tumor cells and Leukocytes) were stimulated with a-CD3 and […] for 3 days, and supernatant mixed with or without anti-IL-22 antibody was co-cultured with DLD1 cells for 24 h to test cell proliferation. F. Cell cyclin-dependent kinase and kinase inhibitors were analyzed by Real-Time PCR.
A, C. Cell proliferation was analyzed using H^3 Thymidine Incorporation. B. The level of total H3K79m2 and H3K27me3 was measured by Western Blot. D. PcG proteins of EZH2, EED, SUZ12 was increased with IL-22(20 ng/ml) treatment. E. EZH2, SUZ12 and EED was detected by Western Blot after IL-22 treated for 24 h or 48 h. F. EZH2 inhibitor DZNep reduced cell proliferation. G.H. The efficiency of EZH2 and SUZ12 knock down was tested by Western Blot. I.J. Cell proliferation was analyzed using H^3 Thymidine Incorporation after knock down of EZH2 and SUZ12. K.L. Relative expression of cyclin-dependent kinase inhibitors (p16 and p18) in shEZH2, shSUZ12 and Dznep treated cells after IL-22 treatment. M. The level of H3K27me3 in the promoter of p16 and p18 was analyzed by ChIP assay.
A. The protein level of phosphorylated STAT3, STAT1 and STATS were activated by IL-22. B. The effect of STAT3 knock down. C. The effect of IL-22 on cell proliferation was analyzed using H^3 Thymidine Incorporation in Stat3 knock down cells. D. Knock down of STAT3 reduced the expression of EZH2 and SUZ12. E. Based on the ENCODE STAT3-ChIP-Seq data base, STAT3 occupancy on the promoter areas of SUZ12 and EED is shown. F. SUZ12/EED DNA was detected by ChIP assay using an antibody against STAT3, c-fos was used as a positive control.
(§1) Three primary colon cancer cell lines (SB, WR, JR) were established from fresh colon tissues. These primary colon cancer cells and DLD1 (ATCC) were studied. Colon cancer cells were treated with recombinant IL-22 (R&D) for different time points. The EZH2 inhibitor DZNep was added in conventional or sphere culture (see, e.g., Kryczek, I., et al., (2012) International journal of cancer 130, 29-39). Tumor cell sphere formation and gene expression were examined (see, e.g., Kryczek, I., et al., (2012) International journal of cancer 130, 29-39).

Experiment [1] relates to primary colon cancer cell line SBCA. Description: Proliferation of primary colon cancer cell line SBCA. The method, then:
FIG. 21A-E A. Dot1L/H3K79me2 inhibitor EZP004777 (10 uM) had no effect on SUZ12 expression but reduce Sox2. B. EZP004777 had no effect on primary colon cancer cell line SBCA. C. EZH2 inhibitor DZNep reduced SBCA cell proliferation. D. SUZ12 knockdown reduced H3K27m3 level. E. Effect of I1-22 on tumor sphere assay was analyzed in shEZH2, shSUZ12 and Dznep treated cells.
as §1

In another experiment the test system is CD4+ T cells. Description: Transwell migration assay. The settings on record: CCL-20 5 ng/ml in lower chamber, 4 h. The method, then:
(A, B) IL-22 is expressed by immune cells in colon cancer tissues. Different cell populations were sorted from colon cancer tissues and IL-22 expression was measured by real time PCR. (5-10 donors, P<0.05). (C) IL-22 is spontaneously released by different immune cell populations in colon cancer tissues. Different CD45^+ immune subsets (10^6/ml) were sorted from colon cancer and blood, and cultured for 12 hours. IL-22 was detected via ELISA. (n=5, *P<0.05). (D, E) IL-22 is expressed by activated CD4^+ T cells in colon cancer tissues. CD45^+ subsets (10^6/ml) were sorted from colon cancer and blood, and were activated with anti-CD3 and anti-CD28 for 2 days. IL-22 was detected with ELISA (D) or intracellular staining (E). (n=5, *P<0.05). (F, G) CCR6^+CD4^+ T cells express IL-22. CD4^+ T cells were sorted based on CCR6 expression and activated with anti-CD3 and anti-CD28 and antigen presenting cells. IL-22 mRNA was detected by real time PCR (F) and protein by ELISA (G). (5 different donors, P<0.05). […] IL-22 expression was quantified with real-time PCR in the migrated and non-migrated cells. Results are expressed as the mean relative expression (H). The phenotype of migrated cells, non-migrated cells and control (before migration) was analyzed by FACS (I). […] The mRNA of stem cell core genes was detected by real-time PCR after 6 hours (K) and ALDH activity was detected by FACS after 48 hours (L). […]

With `Nc1nccc2c1ncn2C1C=C(CO)C(O)C1O` (stereo not drawn) [DZNep, reference compound], in the experiment on colon cancer cells, the “colon cancer cell proliferation induced by IL-22” value is given as “significantly blocked”. For the same compound, in experiment [1], the SBCA cell proliferation entry is on record as “reduced”.

Regarding “CCL20: the ligand for CCR6; CCL-20 (5 ng/ml, R&D)”, the T cell migration entry in the experiment on CD4+ T cells is “efficiently migrated”.

Source of the values: US9618513B2, “Compositions and methods for detecting and treating colorectal cancer” (The Regents of the University of Michigan, priority 2014, dated 2017).
